Like-named read-outs stand apart in the source and are kept apart here.
Columns and labels:
Type in all cases: cell-based
[1] = tested on: microfilariae of Dirofilaria immitis; experiment: Dirofilaria immitis, Microfilaria (DiMf) In Vitro Assay; details: Dirofilaria immitis, 72 h, read-out: DiMf MED, Minimum Effective Dose, D. immitis microfilariae motility, in vitro
D. immitis L4 larvae = experiment: Dirofilaria immitis, L4 Stage (DiL4) In Vitro Assay; details: for minimal effective concentration: Dirofilaria immitis, 72 h, read-out: DiL4 MED, Minimum Effective Dose, D. immitis L4 larvae motility, in vitro; for DiMf/DiL4: larval stage selectivity, ratio of DiMf MED to DiL4 MED
[2] = tested on: third stage larvae of Haemonchus contortus; experiment: Haemonchus contortus, Larvae Stage 3 (HcL3) In Vitro Assay; details: Haemonchus contortus, 96 h
[3] = read-out: HcL3 MED, Haemonchus contortus third stage larvae in vitro, class mark appended to the Ex # in Table 3
[4] = read-out: HcL3 MED, Minimum Effective Dose, H. contortus third stage larvae, approximately 96 hours
[5] = read-out: HcL3 MED, approximately 96 hours incubation, multiple-resistant field isolate

Compound	minimal effective concentration [1] [µM]	minimal effective concentration (D. immitis L4 larvae) [µM]	DiMf/DiL4 (D. immitis L4 larvae)	minimal effective concentration [2, 3] [µM]	minimal effective concentration [2, 4] [µM]	minimal effective concentration [2, 5] [µM]
COc1ncccc1Cc1ccc(C[C@H]2OC(=O)[C@H](CC(C)C)N(C)C(=O)[C@@H](C)OC(=O)[C@H](CC(C)C)N(C)C(=O)[C@@H](Cc3ccc(Cc4cccnc4OC)cc3)OC(=O)[C@H](CC(C)C)N(C)C(=O)[C@@H](C)OC(=O)[C@H](CC(C)C)N(C)C2=O)cc1 [Example 3-31, (3S,6R,9S,12R,15S,18R,21S,24R)-3,9,15,21-tetraisobutyl-6,18-bis(4-((2-methoxypyridin-3-yl)methyl)benzyl)-4,10,12,16,22,24-hexamethyl-1,7,13,19-tetraoxa-4,10,16,22-tetraazacyclotetracosan-2,5,8,11,14,17,20,23-octaone]	0.005	0.0002	25	1 to 3.3	2.4	–
Cc1ccsc1Cc1ccc(C[C@H]2OC(=O)[C@H](CC(C)C)N(C)C(=O)[C@@H](C)OC(=O)[C@H](CC(C)C)N(C)C(=O)[C@@H](Cc3ccc(Cc4sccc4C)cc3)OC(=O)[C@H](CC(C)C)N(C)C(=O)[C@@H](C)OC(=O)[C@H](CC(C)C)N(C)C2=O)cc1 [Example 3-44, (3S,6R,9S,12R,15S,18R,21S,24R)-3,9,15,21-tetraisobutyl-4,6,10,16,18,22-hexamethyl-12,24-bis(4-((3-methylthiophen-2-yl)methyl)benzyl)-1,7,13,19-tetraoxa-4,10,16,22-tetraazacyclotetracosan-2,5,8,11,14,17,20,23-octaone]	0.1	0.0001	1000	1 to 3.3	1.8	–
Cc1cc(Cc2ccc(C[C@H]3OC(=O)[C@H](CC(C)C)N(C)C(=O)[C@@H](C)OC(=O)[C@H](CC(C)C)N(C)C(=O)[C@@H](Cc4ccc(Cc5cc(C)nn5C)cc4)OC(=O)[C@H](CC(C)C)N(C)C(=O)[C@@H](C)OC(=O)[C@H](CC(C)C)N(C)C3=O)cc2)n(C)n1 [Example 3-49, (3S,6R,9S,12R,15S,18R,21S,24R)-6,18-bis(4-((1,3-dimethyl-1H-pyrazol-5-yl)methyl)benzyl)-3,9,15,21-tetraisobutyl-4,10,12,16,22,24-hexamethyl-1,7,13,19-tetraoxa-4,10,16,22-tetraazacyclotetracosan-2,5,8,11,14,17,20,23-octaone]	0.005	0.001	5	1 to 3.3	3.3	–
CC(C)C[C@H]1C(=O)O[C@H](Cc2ccc(Cc3occc3C#N)cc2)C(=O)N(C)[C@@H](CC(C)C)C(=O)O[C@H](C)C(=O)N(C)[C@@H](CC(C)C)C(=O)O[C@H](Cc2ccc(Cc3occc3C#N)cc2)C(=O)N(C)[C@@H](CC(C)C)C(=O)O[C@H](C)C(=O)N1C [Example 3-50, 2,2′-(((((2R,5S,8R,11 S,14R,17S,20R,23S)-5,11,17,23-tetraisobutyl-4,8,10,16,20,22-hexamethyl-3,6,9,12,15,18,21,24-octaoxo-1,7,13,19-tetraoxa-4,10,16,22-tetraazacyclotetracosane-2,14-diyl)bis(methylene))bis(4,1-phenylene))bis(methylene))bis(furan-3-carbonitrile)]	0.001	0.0001	10	< 1	0.3	≤ 1
CC(C)C[C@H]1C(=O)O[C@H](Cc2ccc(Cc3ccsc3)cc2)C(=O)N(C)[C@@H](CC(C)C)C(=O)O[C@H](C)C(=O)N(C)[C@@H](CC(C)C)C(=O)O[C@H](Cc2ccc(Cc3ccsc3)cc2)C(=O)N(C)[C@@H](CC(C)C)C(=O)O[C@H](C)C(=O)N1C [Example 3-56, (3S,6R,9S,12R,15S,18R,21S,24R)-3,9,15,21-tetraisobutyl-4,6,10,16,18,22-hexamethyl-12,24-bis(4-(thiophen-3-ylmethyl)benzyl)-1,7,13,19-tetraoxa-4,10,16,22-tetraazacyclotetracosan-2,5,8,11,14,17,20,23-octaone]	0.1	0.0005	200	< 1	0.5	≤ 1
CC(C)C[C@H]1C(=O)O[C@H](Cc2ccc(Cc3cocn3)cc2)C(=O)N(C)[C@@H](CC(C)C)C(=O)O[C@H](C)C(=O)N(C)[C@@H](CC(C)C)C(=O)O[C@H](Cc2ccc(Cc3cocn3)cc2)C(=O)N(C)[C@@H](CC(C)C)C(=O)O[C@H](C)C(=O)N1C [Example 3-57, (3S,6R,9S,12R,15S,18R,21S,24R)-3,9,15,21-tetraisobutyl-4,6,10,16,18,22-hexamethyl-12,24-bis(4-(oxazol-4-ylmethyl)benzyl)-1,7,13,19-tetraoxa-4,10,16,22-tetraazacyclotetracosan-2,5,8,11,14,17,20,23-octaone]	0.0003	0.0003	1	< 1	1	≤ 1
CC(C)C[C@H]1C(=O)O[C@H](Cc2ccc(Cc3coc(C#N)c3)cc2)C(=O)N(C)[C@@H](CC(C)C)C(=O)O[C@H](C)C(=O)N(C)[C@@H](CC(C)C)C(=O)O[C@H](Cc2ccc(Cc3coc(C#N)c3)cc2)C(=O)N(C)[C@@H](CC(C)C)C(=O)O[C@H](C)C(=O)N1C [Example 3-60, 4,4′-(((((2R,5S,8R,11 S,14R,17S,20R,23S)-5,11,17,23-tetraisobutyl-4,8,10,16,20,22-hexamethyl-3,6,9,12,15,18,21,24-octaoxo-1,7,13,19-tetraoxa-4,10,16,22-tetraazacyclotetracosane-2,14-diyl)bis(methylene))bis(4,1-phenylene))bis(methylene))bis(furan-2-carbonitrile)]	0.05	0.001	50	–	> 10	–
COc1cccc(Cc2ccc(C[C@H]3OC(=O)[C@H](CC(C)C)N(C)C(=O)[C@@H](C)OC(=O)[C@H](CC(C)C)N(C)C(=O)[C@@H](Cc4ccc(Cc5cccc(OC)n5)cc4)OC(=O)[C@H](CC(C)C)N(C)C(=O)[C@@H](C)OC(=O)[C@H](CC(C)C)N(C)C3=O)cc2)n1 [Example 3-69, (3S,6R,9S,12R,15S,18R,21S,24R)-3,9,15,21-tetraisobutyl-6,18-bis(4-((6-methoxypyridin-2-yl)methyl)benzyl)-4,10,12,16,22,24-hexamethyl-1,7,13,19-tetraoxa-4,10,16,22-tetraazacyclotetracosan-2,5,8,11,14,17,20,23-octaone]	0.03	0.0007	42.9	< 1	0.5	≤ 1
CC(C)C[C@H]1C(=O)O[C@H](Cc2ccc(Cc3sccc3Cl)cc2)C(=O)N(C)[C@@H](CC(C)C)C(=O)O[C@H](C)C(=O)N(C)[C@@H](CC(C)C)C(=O)O[C@H](Cc2ccc(Cc3sccc3Cl)cc2)C(=O)N(C)[C@@H](CC(C)C)C(=O)O[C@H](C)C(=O)N1C [Example 3-87, (3S,6R,9S,12R,15S,18R,21S,24R)-6,18-bis(4-((3-chlorothiophen-2-yl)methyl)benzyl)-3,9,15,21-tetraisobutyl-4,10,12,16,22,24-hexamethyl-1,7,13,19-tetraoxa-4,10,16,22-tetraazacyclotetracosan-2,5,8,11,14,17,20,23-octaone]	0.1	0.0003	333	< 1	0.3	≤ 1
COc1ccsc1Cc1ccc(C[C@H]2OC(=O)[C@H](CC(C)C)N(C)C(=O)[C@@H](C)OC(=O)[C@H](CC(C)C)N(C)C(=O)[C@@H](Cc3ccc(Cc4sccc4OC)cc3)OC(=O)[C@H](CC(C)C)N(C)C(=O)[C@@H](C)OC(=O)[C@H](CC(C)C)N(C)C2=O)cc1 [Example 3-110, (3S,6R,9S,12R,15S,18R,21S,24R)-3,9,15,21-tetraisobutyl-6,18-bis(4-((3-methoxythiophen-2-yl)methyl)benzyl)-4,10,12,16,22,24-hexamethyl-1,7,13,19-tetraoxa-4,10,16,22-tetraazacyclotetracosan-2,5,8,11,14,17,20,23-octaone]	0.03	0.0001	300	–	> 100	–
CC(C)C[C@H]1C(=O)O[C@H](Cc2ccc(Cc3scnc3Cl)cc2)C(=O)N(C)[C@@H](CC(C)C)C(=O)O[C@H](C)C(=O)N(C)[C@@H](CC(C)C)C(=O)O[C@H](Cc2ccc(Cc3scnc3Cl)cc2)C(=O)N(C)[C@@H](CC(C)C)C(=O)O[C@H](C)C(=O)N1C [Example 3-112, (3S,6R,9S,12R,15S,18R,21S,24R)-6,18-bis(4-((4-chlorothiazol-5-yl)methyl)benzyl)-3,9,15,21-tetraisobutyl-4,10,12,16,22,24-hexamethyl-1,7,13,19-tetraoxa-4,10,16,22-tetraazacyclotetracosan-2,5,8,11,14,17,20,23-octaone]	0.001	3e-05	33.3	< 1	1	≤ 1

— patent publication US11771738B2 (Zoetis Services LLC, priority 2018, dated 2023)
